Results taken from ChEMBL document CHEMBL5726270, “1-pyrazolyl-3-(4-((2-anilinopyrimidin-4-yl)oxy)napththalen-1-yl) ureas as P38 MAP knase inhibitors” (2017).

Target: T1, Mitogen-activated protein kinase 12 (Homo sapiens, UniProt P53778)
T1 sequence (P53778 whole entry): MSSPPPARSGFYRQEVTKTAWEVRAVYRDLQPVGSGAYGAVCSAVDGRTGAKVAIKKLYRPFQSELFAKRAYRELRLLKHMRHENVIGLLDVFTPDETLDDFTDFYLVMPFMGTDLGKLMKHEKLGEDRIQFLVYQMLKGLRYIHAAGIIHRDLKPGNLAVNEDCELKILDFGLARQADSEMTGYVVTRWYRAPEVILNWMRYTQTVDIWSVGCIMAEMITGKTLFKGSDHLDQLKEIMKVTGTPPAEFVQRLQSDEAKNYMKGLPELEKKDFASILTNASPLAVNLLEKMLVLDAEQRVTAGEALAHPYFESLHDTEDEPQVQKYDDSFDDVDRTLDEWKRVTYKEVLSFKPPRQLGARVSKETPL
Assay: p38 MAPKγ Enzyme Inhibition: The inhibitory activities of compounds of the invention against p38MAPKγ (MAPK12: Invitrogen), were evaluated in a similar fashion to that described hereinabove. The enzyme (800 ng/mL, 2.5 μL) was incubated with the test compound (2.5 μL at either 4 μg/mL, 0.4 μg/mL, 0.04 μg/mL, or 0.004 μg/mL) for 2 hr at RT. The FRET peptides (8 μM, 2.5 μL), and appropriate ATP solution (2.5 μL, 400 μM) was then added to the enzymes/compound mixtures and incubated for 1 hr. Development reagent (protease, 5 μL) was added for 1 hr prior to detection in a fluorescence microplate reader (Varioskan® Flash, Thermo Scientific).

Compound: Cc1ccc(-n2nc(C(C)(C)C)cc2NC(=O)Nc2ccc(Oc3ccnc(Nc4ccccc4Cl)n3)c3ccccc23)cc1
- IC50: > 15.1 µM
